Assay results as given in ChEMBL document CHEMBL1201862, “PubChem BioAssay data set” (2004).
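Assay format: 96-well plates, 48-hour exposure. Abbreviation: GI50, concentration required for 50% inhibition of growth.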 Calls of active or inactive are those of the source. No stated cut-off is given here; in the data, active = GI50 up to about 1.1 µM and inactive = higher.

Key:
Assay in all cases: NCI tumour cell line growth inhibition, 48 h
786-0 = test system: 786-0
SNB-19 = test system: SNB-19
UO-31 = test system: UO-31
SK-MEL-28 = test system: SK-MEL-28
MDA-N = test system: MDA-N
SN12C = test system: SN12C
CCRF-CEM = test system: CCRF-CEM
NCI-H460 = test system: NCI-H460
KM12 = test system: KM12
OVCAR-8 = test system: OVCAR-8
LXFL 529 = test system: LXFL 529
MDA-MB-231 = test system: MDA-MB-231
HCT-116 = test system: HCT-116
LOX IMVI = test system: LOX IMVI
PC-3 = test system: PC-3
SNB-75 = test system: SNB-75
DU-145 = test system: DU-145
NCI-H226 = test system: NCI-H226
A549 = test system: A549
M14 = test system: M14

Measured: GI50

CCOC1c2cc(OC)c(OC)cc2-c2ccc3ccccc3c2N1C (stereo not given)
inactive: 786-0 16.8 µM | SNB-19 9.86 µM | UO-31 44.6 µM | SK-MEL-28 13.4 µM | MDA-N 10.6 µM | SN12C 7.76 µM | CCRF-CEM 18 µM | NCI-H460 12.2 µM | KM12 2.66 µM | OVCAR-8 12.2 µM | LXFL 529 5.96 µM | MDA-MB-231 13.5 µM | HCT-116 8.59 µM | LOX IMVI 14.9 µM | PC-3 5.15 µM | SNB-75 11.8 µM | DU-145 15 µM | NCI-H226 19.2 µM | A549 5.62 µM | M14 19.3 µM
